Measurements: patent US8378117B2 (priority 2005, dated 2013)
Read-outs that look alike come from different tables or passages of the source.

Experiments:
CB1 receptor [1] = molecular target: T1, CB1 receptor (Homo sapiens, UniProt P21554); experiment: Binding assay for CB1 agonists or inverse agonists (SK-N-MC membranes, [3H]-CP-55,940); conditions: for inhibition at 1 µM: read-out: CB1 receptor binding percent inhibition, test concentration 1 μM (footnote 1); for inhibition at 0.2 µM: read-out: CB1 receptor binding percent inhibition, test concentration 0.2 μM (footnote 2)
T1 construct: expressed in transfected cells
T1 sequence (P21554 whole entry): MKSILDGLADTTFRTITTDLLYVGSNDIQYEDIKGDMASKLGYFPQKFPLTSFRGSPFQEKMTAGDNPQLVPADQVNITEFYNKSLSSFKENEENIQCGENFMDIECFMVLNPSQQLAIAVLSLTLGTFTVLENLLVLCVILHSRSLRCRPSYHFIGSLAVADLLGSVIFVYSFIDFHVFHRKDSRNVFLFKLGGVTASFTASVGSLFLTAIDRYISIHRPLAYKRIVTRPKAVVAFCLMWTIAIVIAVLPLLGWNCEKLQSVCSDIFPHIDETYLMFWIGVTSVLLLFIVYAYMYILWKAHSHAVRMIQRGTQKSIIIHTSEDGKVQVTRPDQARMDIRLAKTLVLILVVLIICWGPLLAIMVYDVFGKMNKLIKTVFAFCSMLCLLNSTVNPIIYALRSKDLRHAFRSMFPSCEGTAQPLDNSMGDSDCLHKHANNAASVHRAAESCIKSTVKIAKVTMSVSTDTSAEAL
Method in brief: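 Membranes from SK-N-MC cells stably expressing human CB1 incubated with compound and [3H]-CP-55,940 ([…]) for 90 min at 30° C in Tris-HCl pH 7.5, MgCl2, EDTA, fatty-acid-free BSA. Non-specific binding defined with 10 uM WIN 55,212; filtration, scintillation count; IC50 by linear regression.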

CB2 receptor = molecular target: T2, CB2 receptor (Homo sapiens, UniProt P34972); experiment: Binding assay for CB2 agonists or inverse agonists (SK-N-MC membranes, [3H]-CP-55,940); conditions: for inhibition at 0.2 µM: read-out: CB2 receptor binding percent inhibition, test concentration 0.2 μM (footnote 2); for CB2 receptor binding percent inhibition: test concentration not stated
T2 construct: expressed in transfected cells
T2 sequence (P34972 whole entry): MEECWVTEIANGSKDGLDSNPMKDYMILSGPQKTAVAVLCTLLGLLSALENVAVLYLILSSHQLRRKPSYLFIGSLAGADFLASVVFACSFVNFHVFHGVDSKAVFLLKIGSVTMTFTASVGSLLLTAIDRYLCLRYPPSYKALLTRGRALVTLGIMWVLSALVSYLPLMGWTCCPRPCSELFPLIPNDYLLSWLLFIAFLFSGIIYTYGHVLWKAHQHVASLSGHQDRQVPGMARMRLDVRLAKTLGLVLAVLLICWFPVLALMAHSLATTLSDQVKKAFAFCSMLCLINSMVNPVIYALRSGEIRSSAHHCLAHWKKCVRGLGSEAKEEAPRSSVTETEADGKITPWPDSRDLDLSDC
Method in brief: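 Membranes from SK-N-MC cells stably expressing human CB2 were incubated with radioligand and test compounds for 90 min at 30 °C in Tris-HCl buffer, pH 7.5, with MgCl2, EDTA and fatty-acid-free BSA. Filter-bound radioactivity was counted; IC50 was derived by linear regression of percent inhibition.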

CB1 receptor [2] = molecular target: T1, CB1 receptor; experiment: cell-based; conditions: SK-N-MC cells
Source text: The CB1 and CB2 receptors are G-protein coupled receptors (GPCR), which influence cell function via the Gi-protein. These receptors modulate the activity of intracellular adenylate cyclase, which in turn produces the intracellular signal messenger cyclic-AMP (cAMP).
At baseline, or during non-ligand bound conditions, these receptors are constitutively active and tonically suppress adenylate cyclase activity. The binding of an agonist causes further receptor activation and produces additional suppression of adenylate cyclase activity. The binding of an inverse agonist inhibits the constitutive activity of the receptors and results in an increase in adenylate cyclase activity.
By monitoring intracellular adenylate cyclase activity, the ability of compounds to act as agonists or inverse agonists can be determined.
Test compounds were evaluated in SK-N-MC cells which, using standard transfection procedures, were stably transfected with human cDNA for pcDNA3-CRE β-gal and pcDNA3 CB1 receptor (human) or pcDNA3 CB2 receptor (human). By expressing CRE β-gal, the cells produced β-galactosidase in response to CRE promoter activation by cAMP. Cells expressing CRE β-gal and either the human CB1 or CB2 receptor will produce less β-galactosidase when treated with a CB1/CB2 agonist and will produce more β-galactosidase when treated with a CB1/CB2 inverse agonist.
The cells were grown in 96-well plates under standard cell culture conditions at 37° C. in a 5% CO2 atmosphere and culture media (wherein the media was supplemented with 2 mM L-glutamine, […] sodium pyruvate, 10% FBS (fetal bovine serum) and antibiotics).
The change in forskolin induced β-galactosidase activity was determined by setting a vehicle treated cell's activity value at 100% and expressing the β-galactosidase activity measured in a corresponding compound treated cell as a percent of the vehicle treated cell activity.
The EC50 value for functional activity for compounds tested was calculated by linear regression and was obtained from studies in which varying compound concentrations were used.
Where an EC50 value was not obtained for a test compound, the value shown (in %) represents change in functional activity and was obtained from a study in which one compound concentration was used.

[3] = forskolin induced β-galactosidase activity, read-out: CB1 Receptor Functional Inverse Agonist EC50
[4] = CB1 Receptor Functional Inverse Agonist EC50, forskolin induced β-galactosidase activity
[5] = Cannabinoid CB1 Receptor Binding IC50, calculated by linear regression from percent inhibition at various test concentrations

## CC12CCC(C1)C(C)(C)[C@H]2NC(=O)c1nn(-c2ccc(Cl)cc2Cl)c2c1CCCCC2Cc1cccc(F)c1 (stereo partly drawn) [Cpd 42, 1-(2,4-dichloro-phenyl)-8-(3-fluoro-benzyl)-1,4,5,6,7,8-hexahydro-cycloheptapyrazole-3-carboxylic acid [(2S)-1,3,3-trimethyl-bicyclo[2.2.1]hept-2-yl]-amide]
CB1 receptor [1]; calculated by linear regression from percent inhibition at various test concentrations, read-out: Cannabinoid CB1 Receptor Binding IC50
  IC50: 300 nM
CB1 receptor [1]
  inhibition at 1 µM: 65%
CB2 receptor; calculated by linear regression from percent inhibition at various test concentrations, read-out: Cannabinoid CB2 Receptor Binding IC50
  IC50: 300 nM
CB2 receptor; test concentration 1 μM (footnote 1), read-out: CB2 receptor binding percent inhibition
  inhibition at 1 µM: 52%
CB1 receptor [2]; [3]
  EC50: 300 nM

## O=C(NN1CCOCC1)c1nn(-c2ccc(Cl)cc2Cl)c2c1CCCC/C2=C\c1ccc(Cl)cc1 [Cpd 134, (8E)-8-(4-chloro-benzylidene)-1-(2,4-dichloro-phenyl)-1,4,5,6,7,8-hexahydro-cycloheptapyrazole-3-carboxylic acid morpholin-4-ylamide]
CB1 receptor [1]; read-out: CB1 receptor binding percent inhibition, test concentration 0.25 μM (footnote 8)
  inhibition at 0.25 µM: 58%
CB2 receptor; read-out: CB2 receptor binding percent inhibition, test concentration 0.25 μM (footnote 8)
  inhibition at 0.25 µM: 28%
CB1 receptor [2]; [4]
  EC50: 10 nM

## O=C(NCc1ccccn1)c1nn(-c2ccc(Cl)cc2Cl)c2c1CCCC/C2=C\c1ccc(Cl)cc1 [Cpd 155, (8E)-8-(4-chloro-benzylidene)-1-(2,4-dichloro-phenyl)-1,4,5,6,7,8-hexahydro-cycloheptapyrazole-3-carboxylic acid (pyridin-2-ylmethyl)-amide]
CB1 receptor [1]; [5]
  IC50: 70 nM
CB1 receptor [1]
  inhibition at 0.2 µM: 72%
CB2 receptor
  inhibition at 0.2 µM: 8%
CB1 receptor [2]; [4]
  EC50: 30 nM

## CC[C@@H](NC(=O)c1nn(-c2ccc(Cl)cc2Cl)c2c1CCCC/C2=C\c1ccc(F)cc1)c1ccccc1 [Cpd 202, (8E)-1-(2,4-dichloro-phenyl)-8-(4-fluoro-benzylidene)-1,4,5,6,7,8-hexahydro-cycloheptapyrazole-3-carboxylic acid [(1R)-1-phenyl-propyl]-amide]
CB1 receptor [1]; [5]
  IC50: 10 nM
CB1 receptor [1]
  inhibition at 0.2 µM: 91%
CB2 receptor
  inhibition at 0.2 µM: 9%
CB1 receptor [2]; [4]
  EC50: 9 nM

## C[C@@H](NC(=O)c1nn(C2CCCCC2)c2c1CCCCC2Cc1cccc(Cl)c1)c1ccccc1 (stereo partly drawn) [Cpd 8, 8-(3-chloro-benzyl)-1-cyclohexyl-1,4,5,6,7,8-hexahydro-cycloheptapyrazole-3-carboxylic acid [(1R)-1-phenyl-ethyl]-amide]
CB1 receptor [1]
  inhibition at 1 µM: 30%
CB2 receptor
  CB2 receptor binding percent inhibition: 5%
CB1 receptor [2]; [3]
  EC50: 400 nM

## C[C@@H](NC(=O)c1nn(-c2ccc(S(N)(=O)=O)cc2)c2c1CCCC/C2=C\c1ccc(Cl)cc1)C1CCCCC1 [Cpd 185, (8E)-8-(4-chloro-benzylidene)-1-(4-sulfamoyl-phenyl)-1,4,5,6,7,8-hexahydro-cycloheptapyrazole-3-carboxylic acid [(1R)-1-cyclohexyl-ethyl]-amide]
CB1 receptor [1]; [5]
  IC50: 30 nM
CB1 receptor [1]
  inhibition at 0.2 µM: 75%
CB2 receptor
  inhibition at 0.2 µM: 56%
CB1 receptor [2]; [4]
  EC50: < 3 nM

## O=C(NN1CCOCC1)c1nn(-c2ccc(Cl)cc2Cl)c2c1CCCCC2Cc1cccc(Cl)c1 (stereo not drawn) [Cpd 117, 8-(3-chloro-benzyl)-1-(2,4-dichloro-phenyl)-1,4,5,6,7,8-hexahydro-cycloheptapyrazole-3-carboxylic acid morpholin-4-ylamide]
CB1 receptor [1]
  inhibition at 1 µM: 44%
CB2 receptor
  CB2 receptor binding percent inhibition: 22%
CB1 receptor [2]; [3]
  EC50: 300 nM

## C[C@H](NS(=O)(=O)/C=C/c1nn(C)c2c1CCCCC2Cc1cccc(F)c1)c1ccccc1 (stereo partly drawn) [Cpd 104, (2E)-2-[8-(3-fluoro-benzyl)-1-methyl-1,4,5,6,7,8-hexahydro-cycloheptapyrazol-3-yl]-ethenesulfonic acid [(1S)-1-phenyl-ethyl]-amide]
CB1 receptor [1]
  inhibition at 1 µM: 19%
CB2 receptor
  CB2 receptor binding percent inhibition: 93%
CB1 receptor [2]; [4]
  EC50: 100 nM

## COC(=O)[C@@H](Cc1ccc(O)cc1)NC(=O)c1nn(-c2ccc(Cl)cc2Cl)c2c1CCCCC2Cc1cccc(F)c1 (stereo partly drawn) [Cpd 80, (2R)-2-{[1-(2,4-dichloro-phenyl)-8-(3-fluoro-benzyl)-1,4,5,6,7,8-hexahydro-cycloheptapyrazole-3-carbonyl]-amino}-3-(4-hydroxy-phenyl)-propionic acid methyl ester]
CB1 receptor [1]; [5]
  IC50: 700 nM
CB1 receptor [1]; value shown is an average percent inhibition (footnote 5), concentration not given
  CB1 receptor binding average percent inhibition: 51%
CB2 receptor
  CB2 receptor binding percent inhibition: 23%
CB1 receptor [2]; [4]
  EC50: 60 nM
